# In article PMC3256212, “Mechanism and Function of Drosophila capa GPCR: A Desiccation Stress-Responsive Receptor with Functional Homology to Human NeuromedinU Receptor” (PLoS ONE, 2012):
# Peptide text beside a SMILES is read from it.
# Tested on: tubule principal cells
# Design: species or system Drosophila melanogaster
# Protocol: All lines were maintained on a standard Drosophila diet at 22°C, 55% humidity on a 12∶12 h light∶dark photoperiod. Wild-type flies were obtained from a Canton-S (CS) stock. In order to drive cell- and tissue-specific gene expression of gene(s) of choice in vivo, the GAL4/UAS system was used, in which cell- or tissue-specific GAL4 ‘drivers’ enable binary expression of genes cloned downstream of the GAL4-binding Upstream Activating Sequence. Thus, for intact tubules, principal cell-specific expression can be driven using either c42-GAL4 [16] or Urate-Oxidase-GAL4 [17] drivers in an otherwise normal fly. […] Validation of the capaR RNAi line was confirmed by quantitative Q-RT-PCR using the primers 5′-[…]-3′ and 5′-[…]-3′ (Fig. S1). […]
# Drosophila S2 cells, cultured under standard conditions were transiently transfected with the apoaequorin ORF [21] and a receptor ORF construct, and expression induced using CuSO4. […] Bioluminescence recordings were carried out using a Mithras LB940 automated 96-well plate reader (Berthold Technologies) and MikroWin software. […] At the end of each recording samples were disrupted by the addition of 100 µl lysis solution, and the [Ca^2+] concentrations calculated as previously described. […]
smiles,measurement,value
"CC(C)C[C@H](NC(=O)[C@H](Cc1ccccc1)NC(=O)[C@H](Cc1ccc(O)cc1)NC(=O)CNC(=O)[C@H](CCCNC(=N)N)NC(=O)[C@H](CO)NC(=O)[C@H](CCC(N)=O)NC(=O)[C@H](CO)NC(=O)[C@H](C)NC(=O)[C@H](Cc1ccccc1)NC(=O)[C@@H]1CCCN1C(=O)[C@H](CO)NC(=O)[C@H](CCC(N)=O)NC(=O)[C@H](Cc1ccccc1)NC(=O)[C@H](CCC(=O)O)NC(=O)[C@H](CCC(=O)O)NC(=O)[C@H](CC(=O)O)NC(=O)[C@@H](NC(=O)[C@H](CCCNC(=N)N)NC(=O)[C@@H](N)Cc1ccccc1)C(C)C)C(=O)N[C@@H](Cc1ccccc1)C(=O)N[C@@H](CCCNC(=N)N)C(=O)N1CCC[C@H]1C(=O)N[C@@H](CCCNC(=N)N)C(=O)N[C@@H](CC(N)=O)C(N)=O [NMU-25, reference compound] (H-FRVDEEFQSPFASQSRGYFLFRPRN-NH2)",EC50,27.1 nM
